Results from patent US20250250230A1, “HETEROCYCLIC COMPOUND” (TAKEDA PHARMACEUTICAL COMPANY LIMITED, priority 2022, published 2025).

Target: T1, human orexin type 2 receptor (Homo sapiens, UniProt O43614)
T1 construct: expressed in transfected cells
T1 sequence (O43614 1-444): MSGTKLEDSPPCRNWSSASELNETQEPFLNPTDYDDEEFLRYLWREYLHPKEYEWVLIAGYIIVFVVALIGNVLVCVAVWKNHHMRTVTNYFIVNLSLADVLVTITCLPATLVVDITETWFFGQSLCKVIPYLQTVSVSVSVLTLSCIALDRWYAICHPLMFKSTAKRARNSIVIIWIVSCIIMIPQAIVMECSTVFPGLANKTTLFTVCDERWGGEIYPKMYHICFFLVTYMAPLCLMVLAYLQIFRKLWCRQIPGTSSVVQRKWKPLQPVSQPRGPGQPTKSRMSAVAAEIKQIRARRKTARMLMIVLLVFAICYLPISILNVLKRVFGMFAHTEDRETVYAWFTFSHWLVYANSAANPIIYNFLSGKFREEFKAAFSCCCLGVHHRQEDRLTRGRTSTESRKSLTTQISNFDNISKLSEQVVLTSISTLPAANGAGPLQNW
Assay: Measurement of orexin type 2 receptor agonist activity (calcium fluorescence, Fluo-4 AM, FDSS)
Assay type: cell-based
Conditions: test compound 3 μM; CHO cells expressing human OX2 receptor; DMSO = 0%, orexin A (human) = 100%
How it was run: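 CHO-K1 cells stably expressing human OX2R were loaded with Fluo-4 AM (30 min 37 °C, 30 min RT) in HEPES-buffered HBSS with 0.1% BSA and probenecid. Calcium fluorescence was followed on FDSS for 2 min after compound addition; activity normalised to DMSO (0%) and 10 nM orexin A (100%).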

CS(=O)(=O)NC1CCCN(C(=O)C2CC2c2sccc2-c2c(F)cccc2F)CC1 (racemic) [Example 221, a mixture of rac-N-[(4R)-1-{(1R,2R)-2-[3-(2,6-difluorophenyl)thiophen-2-yl]cyclopropane-1-carbonyl}azepan-4-yl]methanesulfonamide and rac-N-[(4S)-1-{(1R,2R)-2-[3-(2,6-difluorophenyl)thiophen-2-yl]cyclopropane-1-carbonyl}azepan-4-yl]methanesulfonamide]
OX2R agonist activity (3 μM, %): 107%

CS(=O)(=O)NC1CCCN(C(=O)C2CC2c2sccc2-c2c(F)cccc2F)C1 (racemic) [Example 223, a mixture of rac-N-[(3R)-1-{(1R,2R)-2-[3-(2,6-difluorophenyl)thiophen-2-yl]cyclopropane-1-carbonyl}piperidin-3-yl]methanesulfonamide and rac-N-[(3S)-1-{(1R,2R)-2-[3-(2,6-difluorophenyl)thiophen-2-yl]cyclopropane-1-carbonyl}piperidin-3-yl]methanesulfonamide]
OX2R agonist activity (3 μM, %): 81%

CS(=O)(=O)NC1CCN(C(=O)C2CC2c2ccc(C(F)F)cc2-c2c(F)cccc2F)C1 (racemic) [Example 228, a mixture of rac-N-[(3R)-1-{(1R,2R)-2-[5-(difluoromethyl)-2′,6′-difluoro[1,1′-biphenyl]-2-yl]cyclopropane-1-carbonyl}pyrrolidin-3-yl]methanesulfonamide and rac-N-[(3S)-1-{(1R,2R)-2-[5-(difluoromethyl)-2′,6′-difluoro[1,1′-biphenyl]-2-yl]cyclopropane-1-carbony}pyrrolidin-3-yl]methanesulfonamide]
OX2R agonist activity (3 μM, %): 90%

CS(=O)(=O)NC1CCCN(C(=O)C2CC2c2ccc(C(F)F)cc2-c2c(F)cccc2F)CC1 (racemic) [Example 229, a mixture of rac-N-[(4R)-1-{(1R,2R)-2-[5-(difluoromethyl)-2′,6′-difluoro[1,1′-biphenyl]-2-yl]cyclopropane-1-carbonyl}azepan-4-yl]methanesulfonamide and rac-N-[(4S)-1-{(1R,2R)-2-[5-(difluoromethyl)-2′,6′-difluoro[1,1′-biphenyl]-2-yl]cyclopropane-1-carbonyl}azepan-4-yl]methanesulfonamide]
OX2R agonist activity (3 μM, %): 64%

CS(=O)(=O)NC1CCCN(C(=O)C2CC2c2ccc(C(F)F)cc2-c2c(F)cccc2F)C1 (racemic) [Example 230, a mixture of rac-N-[(3R)-1-{(1R,2R)-2-[5-(difluoromethyl)-2′,6′-difluoro[1,1′-biphenyl]-2-yl]cyclopropane-1-carbonyl}piperidin-3-yl]methanesulfonamide and rac-N-[(3S)-1-{(1R,2R)-2-[5-(difluoromethyl)-2′,6′-difluoro[1,1′-biphenyl]-2-yl]cyclopropane-1-carbonyl}piperidin-3-yl]methanesulfonamide]
OX2R agonist activity (3 μM, %): 91%

CS(=O)(=O)NC1CCCCN(C(=O)C2CC2c2sccc2-c2c(F)cccc2F)C1 (racemic) [Example 233, a mixture of rac-N-[(3R)-1-{(1R,2R)-2-[3-(2,6-difluorophenyl)thiophen-2-yl]cyclopropane-1-carbonyl}azepan-3-yl]methanesulfonamide and rac-N-[(3S)-1-{(1R,2R)-2-[3-(2,6-difluorophenyl)thiophen-2-yl]cyclopropane-1-carbonyl}azepan-3-yl]methanesulfonamide]
OX2R agonist activity (3 μM, %): 80%

CS(=O)(=O)NC1CCN(C(=O)C2CC2c2sccc2-c2c(F)cccc2F)C1 (racemic) [Example 235, a mixture of rac-N-[(3R)-1-{(1R,2R)-2-[3-(2,6-difluorophenyl)thiophen-2-yl]cyclopropane-1-carbonyl}pyrrolidin-3-yl]methanesulfonamide and rac-N-[(3S)-1-{(1R,2R)-2-[3-(2,6-difluorophenyl)thiophen-2-yl]cyclopropane-1-carbonyl}pyrrolidin-3-yl]methanesulfonamide]
OX2R agonist activity (3 μM, %): 89%

CCS(=O)(=O)NC12CC1CN(C(=O)C1CC1c1ccccc1-c1c(F)cccc1F)C2 (racemic) [Example 237, a mixture of rac-N-{(1S,5R)-3-[(1R,2R)-2-(2′,6′-difluoro[1,1′-biphenyl]-2-yl)cyclopropane-1-carbonyl]-3-azabicyclo[3.1.0]hexan-1-yl}ethanesulfonamide and rac-N-{(1R,5S)-3-[(1R,2R)-2-(2′,6′-difluoro[1,1′-biphenyl]-2-yl)cyclopropane-1-carbonyl]-3-azabicyclo[3.1.0]hexan-1-yl}ethanesulfonamide]
OX2R agonist activity (3 μM, %): 99%

Cc1cc(-c2c(F)cccc2F)c(C2CC2C(=O)N2CCCC(NS(C)(=O)=O)CC2)cn1 (racemic) [Example 266, a mixture of rac-N-[(4R)-1-{(1R,2R)-2-[4-(2,6-difluorophenyl)-6-methylpyridin-3-yl]cyclopropane-1-carbonyl}azepan-4-yl]methanesulfonamide and rac-N-[(4S)-1-{(1R,2R)-2-[4-(2,6-difluorophenyl)-6-methylpyridin-3-yl]cyclopropane-1-carbonyl}azepan-4-yl]methanesulfonamide]
OX2R agonist activity (3 μM, %): 87%

Cc1cc(-c2c(F)cccc2F)c(C2CC2C(=O)N2CCCC(NS(C)(=O)=O)C2)cn1 (racemic) [Example 267, a mixture of rac-N-[(3R)-1-{(1R,2R)-2-[4-(2,6-difluorophenyl)-6-methylpyridin-3-yl]cyclopropane-1-carbonyl}piperidin-3-yl]methanesulfonamide and rac-N-[(3S)-1-{(1R,2R)-2-[4-(2,6-difluorophenyl)-6-methylpyridin-3-yl]cyclopropane-1-carbonyl}piperidin-3-yl]methanesulfonamide]
OX2R agonist activity (3 μM, %): 87%

Cc1cc(-c2c(F)cccc2F)c(C2CC2C(=O)N2CC[C@H](NS(C)(=O)=O)C2)cn1 (mixture of isomers) [Example 268, a mixture of rac-N-[(3R)-1-{(1R,2R)-2-[4-(2,6-difluorophenyl)-6-methylpyridin-3-yl]cyclopropane-1-carbonyl}pyrrolidin-3-yl]methanesulfonamide and rac-N-[(3S)-1-{(1R,2R)-2-[4-(2,6-difluorophenyl)-6-methylpyridin-3-yl]cyclopropane-1-carbonyl}pyrrolidin-3-yl]methanesulfonamide]
OX2R agonist activity (3 μM, %): 80%

CS(=O)(=O)NCC1CN(C(=O)C2CC2c2ccccc2-c2c(F)cccc2F)CCC1(F)F (racemic) [Example 275, a mixture of rac-N-({(3R)-1-[(1R,2R)-2-(2′,6′-difluoro[1,1′-biphenyl]-2-yl)cyclopropane-1-carbonyl]-4,4-difluoropiperidin-3-yl}methyl)methanesulfonamide and rac-N-({(3S)-1-[(1R,2R)-2-(2′,6′-difluoro[1,1′-biphenyl]-2-yl)cyclopropane-1-carbonyl]-4,4-difluoropiperidin-3-yl}methyl)methanesulfonamide]
OX2R agonist activity (3 μM, %): 57%

CS(=O)(=O)NCC1CN(C(=O)C2CC2c2ccccc2-c2c(F)cccc2F)CC1(F)F (racemic) [Example 285, a mixture of rac-N-({(3R)-1-[(1R,2R)-2-(2′,6′-difluoro[1,1′-biphenyl]-2-yl)cyclopropane-1-carbonyl]-4,4-difluoropyrrolidin-3-yl}methyl)methanesulfonamide and rac-N-({(3S)-1-[(1R,2R)-2-(2′,6′-difluoro[1,1′-biphenyl]-2-yl)cyclopropane-1-carbonyl]-4,4-difluoropyrrolidin-3-yl}methyl)methanesulfonamide]
OX2R agonist activity (3 μM, %): 63%

CS(=O)(=O)N[C@H]1CCN(C(=O)C2(C#N)CC2c2ccccc2-c2c(F)cccc2F)C1 (mixture of isomers) [Example 316, a mixture of rac-N-{(3S)-1-[(1R,2S)-1-cyano-2-(2′,6′-difluoro[1,1′-biphenyl]-2-yl)cyclopropane-1-carbonyl]pyrrolidin-3-yl}methanesulfonamide and N-{(3S)-1-[(1S,2R)-1-cyano-2-(2′,6′-difluoro[1,1′-biphenyl]-2-yl)cyclopropane-1-carbonyl]pyrrolidin-3-yl}methanesulfonamide]
OX2R agonist activity (3 μM, %): 88%

CS(=O)(=O)NC1CCN(C(=O)C2CC2c2cscc2-c2c(F)cccc2F)C1 (racemic) [Example 321, a mixture of rac-N-[(3R)-1-{(1R,2R)-2-[4-(2,6-difluorophenyl)thiophen-3-yl]cyclopropane-1-carbonyl}pyrrolidin-3-yl]methanesulfonamide and rac-N-[(3R)-1-{(1R,2R)-2-[4-(2,6-difluorophenyl)thiophen-3-yl]cyclopropane-1-carbonyl}pyrrolidin-3-yl]methanesulfonamide]
OX2R agonist activity (3 μM, %): 95%
